Counter-ions that a name gives are not always drawn.
Key:
Mer = molecular target: T1, Mer (Homo sapiens, UniProt Q12866); experiment: Mer autophosphorylation ELISA in transient transfected 293A cells; format: cell-based; conditions: Table 3 Cellular Activities; MERTK-transfected 293A cells, phospho-Mer ELISA
T1 construct: host or cells: 293A cells (Thermo Fisher #R70507)
T1 sequence (Q12866 21-999): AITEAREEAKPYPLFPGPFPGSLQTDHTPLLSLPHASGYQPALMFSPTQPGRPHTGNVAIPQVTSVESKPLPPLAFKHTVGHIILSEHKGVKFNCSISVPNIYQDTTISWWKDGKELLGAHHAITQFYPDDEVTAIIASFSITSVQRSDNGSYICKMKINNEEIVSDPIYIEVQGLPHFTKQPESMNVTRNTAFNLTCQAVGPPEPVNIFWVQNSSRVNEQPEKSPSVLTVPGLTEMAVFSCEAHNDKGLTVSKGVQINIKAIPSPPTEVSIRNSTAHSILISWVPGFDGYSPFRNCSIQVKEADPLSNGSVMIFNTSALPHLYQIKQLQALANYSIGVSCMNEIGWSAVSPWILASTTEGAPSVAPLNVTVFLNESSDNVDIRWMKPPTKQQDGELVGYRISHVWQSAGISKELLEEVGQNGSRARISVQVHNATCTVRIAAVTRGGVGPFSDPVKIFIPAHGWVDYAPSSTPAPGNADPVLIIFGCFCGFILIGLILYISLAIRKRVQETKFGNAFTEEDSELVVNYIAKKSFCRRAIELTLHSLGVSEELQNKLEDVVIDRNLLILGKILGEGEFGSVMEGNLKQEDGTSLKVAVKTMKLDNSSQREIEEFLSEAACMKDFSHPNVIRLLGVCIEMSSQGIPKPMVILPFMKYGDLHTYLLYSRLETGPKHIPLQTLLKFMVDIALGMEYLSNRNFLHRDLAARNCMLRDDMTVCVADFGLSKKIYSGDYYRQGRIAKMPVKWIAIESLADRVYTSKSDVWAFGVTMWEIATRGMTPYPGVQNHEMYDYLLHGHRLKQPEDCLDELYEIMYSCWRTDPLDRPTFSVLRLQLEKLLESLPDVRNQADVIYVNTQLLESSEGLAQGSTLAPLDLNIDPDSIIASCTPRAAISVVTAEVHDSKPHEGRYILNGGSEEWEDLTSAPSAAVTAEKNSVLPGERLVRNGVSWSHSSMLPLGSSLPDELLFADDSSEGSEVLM
Summary of the method: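 Phospho-Mer quantified by ELISA in lysates of transiently MERTK-transfected 293A cells after 1 h exposure to an 8-point compound series, serum-free, 0.3% DMSO. Activity normalized between DMSO-treated (100%) and reference inhibitor-treated (0%) lysates; IC50 via 4-parameter nonlinear regression.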

Met = Met (Homo sapiens, UniProt P08581); experiment: Met autophosphorylation ELISA in PC-3 cells; format: cell-based; parameters: endogenous in cells; host or cells: PC-3 prostate cancer cells (ATCC #CRL-1435); conditions: Table 3 Cellular Activities, HGF-stimulated, phospho-Met ELISA, read-out: c-Met IC50
Chain of Met (P08581 25-1390): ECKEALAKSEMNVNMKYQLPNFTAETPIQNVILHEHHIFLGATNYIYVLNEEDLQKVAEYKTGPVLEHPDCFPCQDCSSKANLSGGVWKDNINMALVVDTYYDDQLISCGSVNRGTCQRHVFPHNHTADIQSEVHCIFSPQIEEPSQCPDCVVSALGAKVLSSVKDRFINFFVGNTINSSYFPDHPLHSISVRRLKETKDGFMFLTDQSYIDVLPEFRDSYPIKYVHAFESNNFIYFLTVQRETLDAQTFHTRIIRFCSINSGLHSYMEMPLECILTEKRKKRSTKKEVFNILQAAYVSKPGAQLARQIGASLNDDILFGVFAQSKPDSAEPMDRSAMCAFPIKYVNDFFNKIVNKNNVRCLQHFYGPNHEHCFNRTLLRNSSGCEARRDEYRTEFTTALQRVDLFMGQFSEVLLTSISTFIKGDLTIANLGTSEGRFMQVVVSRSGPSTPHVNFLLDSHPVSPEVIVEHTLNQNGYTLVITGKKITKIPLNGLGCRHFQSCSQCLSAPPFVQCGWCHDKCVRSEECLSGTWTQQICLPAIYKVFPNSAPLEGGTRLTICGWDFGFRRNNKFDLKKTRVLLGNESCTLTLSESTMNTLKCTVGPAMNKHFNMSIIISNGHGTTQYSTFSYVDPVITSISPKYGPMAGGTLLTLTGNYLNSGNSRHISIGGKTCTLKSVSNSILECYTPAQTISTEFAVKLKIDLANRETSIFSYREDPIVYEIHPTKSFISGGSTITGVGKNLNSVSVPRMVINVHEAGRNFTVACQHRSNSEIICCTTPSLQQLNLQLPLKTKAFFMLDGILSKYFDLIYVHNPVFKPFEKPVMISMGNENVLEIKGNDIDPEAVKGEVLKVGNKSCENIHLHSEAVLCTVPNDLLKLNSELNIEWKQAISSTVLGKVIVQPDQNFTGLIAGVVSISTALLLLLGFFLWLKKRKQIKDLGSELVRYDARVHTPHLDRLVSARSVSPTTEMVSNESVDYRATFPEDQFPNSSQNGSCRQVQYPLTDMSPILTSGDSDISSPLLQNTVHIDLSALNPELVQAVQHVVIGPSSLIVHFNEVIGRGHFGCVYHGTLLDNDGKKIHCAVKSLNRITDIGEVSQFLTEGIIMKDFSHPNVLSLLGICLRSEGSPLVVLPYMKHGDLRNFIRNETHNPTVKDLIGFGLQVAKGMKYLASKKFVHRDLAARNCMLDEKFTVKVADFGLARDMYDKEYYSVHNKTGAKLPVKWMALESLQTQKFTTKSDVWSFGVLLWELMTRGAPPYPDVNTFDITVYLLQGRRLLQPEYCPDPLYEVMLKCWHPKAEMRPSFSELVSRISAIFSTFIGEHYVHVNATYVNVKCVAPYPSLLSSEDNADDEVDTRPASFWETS
Summary of the method: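 IC50 derived by 4-parameter logistic regression of phospho-Met (panTyr) sandwich ELISA signal, scaled between HGF-stimulated DMSO and reference-inhibitor lysates. PC-3 cells, serum-starved 3 h, received an 8-point compound series (0.3% DMSO) for 1 h before 10 min stimulation with 100 ng/mL human HGF.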

COc1cnc2c(Oc3ccc(NC(=O)c4cnc(C)c(-c5ccco5)c4O)cc3F)ccnc2c1 [Compound 96, N-[3-Fluoro-4-[(7-methoxy-1,5-naphthyridin-4-yl)oxy]phenyl]-5-(2-furyl)-4-hydroxy-6-methyl-pyridine-3-carboxamide]
IC50 (Mer): ≤ 100 nM | IC50 (Met): ≤ 100 nM

COc1cnc2c(Oc3ccc(NC(=O)c4cnc(C)c(-c5ccsc5)c4O)cc3F)ccnc2c1 [Compound 98, N-[3-Fluoro-4-[(7-methoxy-1,5-naphthyridin-4-yl)oxy]phenyl]-4-hydroxy-6-methyl-5-(3-thienyl)pyridine-3-carboxamide]
IC50 (Mer): ≤ 100 nM | IC50 (Met): ≤ 100 nM

COc1cnc2c(Oc3ccc(NC(=O)c4cnc(C)c(-c5ccco5)c4O)cc3)ccnc2c1 [Compound 129, 5-(Furan-2-yl)-4-hydroxy-N-[4-[(7-methoxy-1,5-naphthyridin-4-yl)oxy]phenyl]-6-methylpyridine-3-carboxamide]
IC50 (Mer): ≤ 100 nM | IC50 (Met): ≤ 100 nM

COc1cc2nccc(Oc3ccc(NC(=O)c4c(C)nc(C)c(-c5ccsc5)c4O)cc3F)c2nc1OC [Compound 106]
IC50 (Mer): ≤ 100 nM | IC50 (Met): ≤ 100 nM

COc1cc2nccc(Oc3ccc(NC(=O)c4c(C)nc(C)c(-c5cc(C)cs5)c4O)cc3F)c2nc1OC [Compound 137, N-[4-[(6,7-Dimethoxy-1,5-naphthyridin-4-yl)oxy]-3-fluorophenyl]-4-hydroxy-2,6-dimethyl-5-(4-methylthiophen-2-yl)pyridine-3-carboxamide]
IC50 (Mer): ≤ 100 nM | IC50 (Met): ≤ 100 nM

COc1cc2nccc(Oc3ccc(NC(=O)c4cnc(C)c(-c5cccs5)c4O)cc3F)c2nc1OC [Compound 90, N-[4-[(6,7-Dimethoxy-1,5-naphthyridin-4-yl)oxy]-3-fluoro-phenyl]-4-hydroxy-6-methyl-5-(2-thienyl)pyridine-3-carboxamide]
IC50 (Mer): ≤ 100 nM | IC50 (Met): ≤ 100 nM

C=C(C)c1ccc(-c2c(C)ncc(C(=O)Nc3ccc(Oc4ccnc5cc(OC)c(OC)nc45)c(F)c3)c2O)o1 [Compound 152, N-[4-[(6,7-Dimethoxy-1,5-naphthyridin-4-yl)oxy]-3-fluorophenyl]-4-hydroxy-6-methyl-5-(5-prop-1-en-2-ylfuran-2-yl)pyridine-3-carboxamide]
IC50 (Mer): ≤ 100 nM | IC50 (Met): 100 to 300 nM

COc1cc2nccc(Oc3ccc(NC(=O)c4c(C)nc(C)c(-c5ccc(C6CC6)o5)c4O)cc3F)c2nc1OC [Compound 155B, 5-(5-Cyclopropylfuran-2-yl)-N-[4-[(6,7-dimethoxy-1,5-naphthyridin-4-yl)oxy]-3-fluorophenyl]-4-hydroxy-2,6-dimethylpyridine-3-carboxamide]
IC50 (Mer): ≤ 100 nM | IC50 (Met): ≤ 100 nM

COc1cc2nccc(Oc3ccc(NC(=O)c4c(C)nc(C)c(-c5ccnn5C)c4O)cc3F)c2nc1OC [Compound 108, N-[4-[(6,7-Dimethoxy-1,5-naphthyridin-4-yl)oxy]-3-fluoro-phenyl]-4-hydroxy-2,6-dimethyl-5-(2-methylpyrazol-3-yl) pyridine-3-carboxamide]
IC50 (Mer): ≤ 100 nM | IC50 (Met): ≤ 100 nM

COc1cnc2c(Oc3ccc(NC(=O)c4cnc(C)c(-c5cc(C)cs5)c4O)cc3F)ccnc2c1 [Compound 102, N-[3-Fluoro-4-[(7-methoxy-1,5-naphthyridin-4-yl)oxy]phenyl]-4-hydroxy-6-methyl-5-(4-methyl-2-thienyl) pyridine-3-carboxamide]
IC50 (Mer): ≤ 100 nM | IC50 (Met): ≤ 100 nM

COc1cnc2c(Oc3ccc(NC(=O)c4c(C)n(C)c(C)c(-c5cccs5)c4=O)cc3)ccnc2c1 [Compound 165, N-[4-[(7-Methoxy-1,5-naphthyridin-4-yl)oxy]phenyl]-1,2,6-trimethyl-4-oxo-5-thiophen-2-ylpyridine-3-carboxamide]
IC50 (Mer): ≤ 100 nM | IC50 (Met): ≤ 100 nM

COc1cc2nccc(Oc3ccc(NC(=O)c4c(C)ncc(-c5ccco5)c4O)cc3F)c2nc1OC [Compound 119, N-[4-[(6,7-Dimethoxy-1,5-naphthyridin-4-yl)oxy]-3-fluorophenyl]-5-(furan-2-yl)-4-hydroxy-2-methylpyridine-3-carboxamide]
IC50 (Mer): ≤ 100 nM | IC50 (Met): ≤ 100 nM

COc1cc2nccc(Oc3ccc(NC(=O)c4c(C)ncc(-c5ccc(C)o5)c4O)cc3F)c2nc1OC [Compound 120, N-[4-[(6,7-Dimethoxy-1,5-naphthyridin-4-yl)oxy]-3-fluorophenyl]-4-hydroxy-2-methyl-5-(5-methylfuran-2-yl)pyridine-3-carboxamide]
IC50 (Mer): ≤ 100 nM | IC50 (Met): ≤ 100 nM

COc1cc2nccc(Oc3ccc(NC(=O)c4cnc(C)c(-c5cncs5)c4O)cc3F)c2nc1OC [Compound 141, N-[4-[(6,7-Dimethoxy-1,5-naphthyridin-4-yl)oxy]-3-fluorophenyl]-4-hydroxy-6-methyl-5-(1,3-thiazol-5-yl)pyridine-3-carboxamide]
IC50 (Mer): ≤ 100 nM | IC50 (Met): ≤ 100 nM

COc1cc2nccc(Oc3ccc(NC(=O)c4c(C)n(C)c(C)c(-c5ccco5)c4=O)cc3)c2nc1OC [Compound 164, N-[4-[(6,7-Dimethoxy-1,5-naphthyridin-4-yl)oxy]phenyl]-5-(furan-2-yl)-1,2,6-trimethyl-4-oxopyridine-3-carboxamide]
IC50 (Mer): ≤ 100 nM | IC50 (Met): ≤ 100 nM

COc1nc2c(Oc3ccc(NC(=O)c4c(C)n(C)c(C)c(-c5ccco5)c4=O)cc3F)ccnc2cc1OCCC1CCC1 [Compound 337, N-[4-[[7-(2-Cyclobutylethoxy)-6-methoxy-1,5-naphthyridin-4-yl]oxy]-3-fluorophenyl]-5-(furan-2-yl)-1,2,6-trimethyl-4-oxopyridine-3-carboxamide]
IC50 (Mer): ≤ 100 nM | IC50 (Met): ≤ 100 nM

COc1cc2nccc(Oc3ccc(NC(=O)c4cn(CCF)c(C)c(-c5ccco5)c4=O)cc3F)c2nc1OC [Compound 333, N-[4-[(6,7-Dimethoxy-1,5-naphthyridin-4-yl)oxy]-3-fluorophenyl]-1-(2-fluoroethyl)-5-(furan-2-yl)-6-methyl-4-oxopyridine-3-carboxamide]
IC50 (Mer): ≤ 100 nM | IC50 (Met): ≤ 100 nM

COc1cc2nccc(Oc3ccc(NC(=O)c4c(C)nc(C)c(-c5ccc(C)s5)c4O)cc3F)c2nc1OC [Compound 111, N-[4-[(6,7-Dimethoxy-1,5-naphthyridin-4-yl)oxy]-3-fluoro-phenyl]-4-hydroxy-2,6-dimethyl-5-(5-methyl-2-thienyl)pyridine-3-carboxamide]
IC50 (Mer): ≤ 100 nM | IC50 (Met): ≤ 100 nM

COCc1nc(C)c(-c2cccs2)c(O)c1C(=O)Nc1ccc(Oc2ccnc3cc(OC)c(OC)nc23)c(F)c1 [Compound 115, N-[4-[(6,7-Dimethoxy-1,5-naphthyridin-4-yl)oxy]-3-fluorophenyl]-4-hydroxy-2-(methoxymethyl)-6-methyl-5-thiophen-2-ylpyridine-3-carboxamide]
IC50 (Mer): ≤ 100 nM | IC50 (Met): ≤ 100 nM

COc1cc2nccc(Oc3ccc(NC(=O)c4c(C)n(C)c(C)c(-c5cccs5)c4=O)cc3F)c2nc1OC [Compound 168, N-[4-[(6,7-Dimethoxy-1,5-naphthyridin-4-yl)oxy]-3-fluorophenyl]-1,2,6-trimethyl-4-oxo-5-thiophen-2-ylpyridine-3-carboxamide]
IC50 (Mer): ≤ 100 nM | IC50 (Met): ≤ 100 nM

COc1cc2nccc(Oc3ccc(NC(=O)c4cnc(C)c(-c5ccc(C6CC6)o5)c4O)cc3F)c2nc1OC [Compound 155A, 5-(5-Cyclopropylfuran-2-yl)-N-[4-[(6,7-dimethoxy-1,5-naphthyridin-4-yl)oxy]-3-fluorophenyl]-4-hydroxy-6-methylpyridine-3-carboxamide hydrochloride]
IC50 (Mer): ≤ 100 nM | IC50 (Met): ≤ 100 nM

COCc1nc(C)c(-c2ccccn2)c(O)c1C(=O)Nc1ccc(Oc2ccnc3cc(OC)c(OC)nc23)c(F)c1 [Compound 195, N-[4-[(6,7-Dimethoxy-1,5-naphthyridin-4-yl)oxy]-3-fluorophenyl]-4-hydroxy-2-(methoxymethyl)-6-methyl-5-pyridin-2-ylpyridine-3-carboxamide]
IC50 (Mer): ≤ 100 nM | IC50 (Met): ≤ 100 nM

From patent publication US20230151003A1, “COMPOUNDS AND METHODS OF USE” (Exelixis, Inc., priority 2020, published 2023)
